Series [1] concerns estrogen receptor of rat prostates. As to the kind of experiment: Competitive binding with 3H-estradiol to estrogen receptor preparation of rat prostate cytosol. The following applies: for Rat prost. ER (RBA): Table 1, estradiol = 100; for RBA Rat Prostate: Table 2; for binding affinity to estrogen receptor of rat prostates compared with estrogen receptor of rat uteri: rat prostate ER versus rat uterus ER.

For series [2], the system named is hERβ. The settings on record: estradiol = 100; cited from earlier work.
The target of series [3] is T1, estrogen receptor of rat uteri (Rattus norvegicus, UniProt P06211).
T1 construct: The preparation of rat uterus cytosol as well as the receptor test with the ER-containing cytosol; from tissue; host or cells: rat uterus cytosol
T1 sequence (P06211 1-600): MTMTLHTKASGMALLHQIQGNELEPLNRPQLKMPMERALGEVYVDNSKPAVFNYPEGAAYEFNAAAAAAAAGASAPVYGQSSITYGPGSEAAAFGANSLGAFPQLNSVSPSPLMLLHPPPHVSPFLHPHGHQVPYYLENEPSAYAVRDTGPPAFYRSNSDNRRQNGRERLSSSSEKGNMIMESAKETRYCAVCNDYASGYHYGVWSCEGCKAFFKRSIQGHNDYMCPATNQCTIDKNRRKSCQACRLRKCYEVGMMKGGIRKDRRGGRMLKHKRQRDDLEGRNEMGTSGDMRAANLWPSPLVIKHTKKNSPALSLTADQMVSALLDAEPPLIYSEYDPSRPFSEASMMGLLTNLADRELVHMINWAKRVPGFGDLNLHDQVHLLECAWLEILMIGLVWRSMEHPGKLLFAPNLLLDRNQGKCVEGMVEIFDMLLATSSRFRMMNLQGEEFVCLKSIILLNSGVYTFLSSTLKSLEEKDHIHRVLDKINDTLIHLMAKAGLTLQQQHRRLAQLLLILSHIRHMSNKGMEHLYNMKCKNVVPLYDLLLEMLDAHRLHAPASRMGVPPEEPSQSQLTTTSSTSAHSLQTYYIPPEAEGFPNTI
Description: Competitive binding with 3H-estradiol to estrogen receptor preparation of rat uterus cytosol. The settings on record: for RBA Rat Uterus: Table 2.

Series [4] deals with hERβ. Description: Relative binding affinity (RBA) to hERβ, cited from Kuiper et al. Set-up: species or system human. The settings on record: quotient of RBA hERβ / hERα. From the text:
In this case, it is assumed that ERβ predominates in the rat prostates over ERα, and ERα predominates in rat uteri over ERβ.

Series [5] has as its system 5HT2a-receptor and serotonin transporter. Description: Expression of 5HT2a-receptor and serotonin transporter in ERβ-rich brain areas after one-time administration in rats. The following applies: rat brain. Type of series: in vivo. The method, then: Compared to the effect on the serotonin receptor and transporter expression, the effect on the LH-secretion is measured. […] The density of serotonin receptors and transporters is determined in brain sections using radioactive ligands, and the corresponding mRNA is determined using in situ hybridization. The method is described in the literature: G. Fink & B. E. H. Sumner 1996 Nature 383: 306; B. E. H. Sumner et al. 1999 Molecular Brain Research, in press.

Here are results for ten compounds from patent US7378404B2, “8β-hydrocarbyl-substituted estratrienes for use as selective estrogens” (priority 2000, dated 2008).

SMILES strings stand for the structures.

In turn, `COc1ccc2c(c1)CC[C@]1(C)C2=CC[C@@]2(C)[C@H]1CC[C@@H]2O` had a melting point of 168 °C.
For `C[C@]12CC[C@H]3[C@@H](CC=C4C[C@@H](O)CC[C@@]43C)[C@@H]1CC[C@@H]2O` [5-Androstenediol, reference compound], the “Rat prost. ER (RBA)” value in series [1] is 5. The “prost. ER/uterus ER” value in series [1] (ratio of RBA rat prostate ER / rat uterus ER) was determined as 50. Also, the “hERβ RBA” value in the series on hERβ [2] is on record as 17. For the same compound, the “Rat uterus ER (RBA)” value in series [3] (Table 1, estradiol = 100) was 0.1. This compound also returned an ERβ/ERα in the series on hERβ [4] of 3.
As for `C[C@]12CC[C@@H]3c4ccc(O)cc4CC[C@H]3[C@@H]1CC[C@H]2O` [17α-Estradiol, reference compound], the “Rat prost. ER (RBA)” value in series [1] came to 1.3.
Turning to `C=C[C@@]12CCc3cc(O)ccc3C1=CC[C@@]1(C)[C@H]2CC[C@@H]1O` [A, 8β-Vinyl-estra-1,3,5(10),9(11)-tetraene-3,17β-diol], in series [1], the “RBA Rat Prostate” value is 83 and the “binding affinity to estrogen receptor of rat prostates compared with estrogen receptor of rat uteri” value is “higher binding affinity”. Further, the “expression of the serotonin receptor and transporter” value (“expression” below) in series [5] is recorded as “increased expression”. In addition, in series [3], the “RBA Rat Uterus” value is on record as 1.
The matching figures for `C=C[C@@]12CCc3cc(O)ccc3[C@H]1CC[C@@]1(C)[C@H]2CC[C@@H]1O` [B, 8β-vinyl-estra-1,3,5(10)-triene-3,17β-diol]: 63, “higher binding affinity”, “increased expression” and 0.7.
On to `C[C@]12CC[C@@H]3c4ccc(O)cc4CC[C@@]3(C=C(F)F)[C@@H]1CC[C@@H]2O` [C, 8β-(2,2-difluorovinyl)-estra-1,3,5(10)-triene-3,17β-diol], for which, in series [1], the “RBA Rat Prostate” value turned out to be 5 and the “binding affinity to estrogen receptor of rat prostates compared with estrogen receptor of rat uteri” value is reported as “higher binding affinity”. In addition, in series [5], the “expression” value is listed as “increased expression”. For the same compound, the “RBA Rat Uterus” value in series [3] is 0.9.
For `C[C@@]12CCc3cc(O)ccc3[C@H]1CC[C@@]1(C)[C@H]2CC[C@@H]1O` [D, 8β-methyl-estra-1,3,5(10)-triene-3,17β-diol], in series [1], the “RBA Rat Prostate” value is listed as 67 and the “binding affinity to estrogen receptor of rat prostates compared with estrogen receptor of rat uteri” value is listed as “higher binding affinity”. Moreover, the “expression” value in series [5] is recorded as “increased expression”. Further, the “RBA Rat Uterus” value in series [3] stood at 1.3.
With `CC[C@@]12CCc3cc(O)ccc3[C@H]1CC[C@@]1(C)[C@H]2CC[C@@H]1O` [E, 8β-ethyl-estra-1,3,5(10)-triene-3,17β-diol], in series [1], the “RBA Rat Prostate” value is 7 and the “binding affinity to estrogen receptor of rat prostates compared with estrogen receptor of rat uteri” value is on record as “higher binding affinity”. Further, the “expression” value in series [5] is “increased expression”. In addition, the “RBA Rat Uterus” value in series [3] is recorded as under 0.3.
Turning to `C[C@]12CC[C@@H]3c4ccc(O)cc4CC[C@H]3[C@@H]1C[C@@H](O)[C@@H]2O` [Estriol], in the series on hERβ [2], the “hERβ RBA” value is recorded as 21.
Consider `O=c1c(-c2ccc(O)cc2)coc2cc(O)cc(O)c12` [Genisteine, reference compound], for which the “Rat prost. ER (RBA)” value in series [1] was 10.
